Experimental data published in patent US20230041563A1, “N-(1,3,4-OXADIAZOL-2-YL)ARYLCARBOXAMIDES OR SALTS THEREOF, PREPARATION METHODS, HERBICIDAL COMPOSITIONS AND USES THEREOF” (priority 2018, published 2023).

System: Rice
Test: Transplanted rice safety evaluation and weed control effect evaluation in rice field
Format: in vivo, rice (japonica rice/Indica rice)
Conditions: Table 7, dose 125 g a.i./ha, 21 days after treatment
How it was run: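 Japonica and Indica rice at 3-leaf stage transplanted into flooded paddy soil (3-4 cm water). Compound applied 5 days after transplanting. Weeds scored visually on 0-5 scale at 14 days; rice injury at 21 days.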

In the case of `CCSc1c(C(F)(F)F)ccc(C(=O)Nc2nnc(C)o2)c1F` [Compound 1-4], the “Rice (safety level)” value is reported as 0 (Level 0: growth control rate is less than 5%).
